This note sets out measurements from ChEMBL document CHEMBL1133707, “Heteroarylmethoxyphenylalkoxyiminoalkylcarboxylic acids as leukotriene biosynthesis inhibitors” (J Med Chem, 2000).

For orientation: inhibition means the percentage by which the read-out fell short of the control. In general, ED50 refers to the dose that gives a 50% effect, or the effect in half of the subjects. In general, half-life refers to the time needed for the level to fall by half in the phase considered. As usually defined, the Inhibition is the share of the control response that was lost under treatment. In general, IC50 refers to the concentration needed to halve the response being measured.

Series [1] has as its system Rattus norvegicus. Description: Percent inhibition was determined for in vivo ionophore induced rat pleurisy at a dose of 3 mg/kg. It counts as functional.
The target of series [2] is T1, Polyunsaturated fatty acid 5-lipoxygenase (Homo sapiens) (UniProt P09917).
T1 sequence (whole entry): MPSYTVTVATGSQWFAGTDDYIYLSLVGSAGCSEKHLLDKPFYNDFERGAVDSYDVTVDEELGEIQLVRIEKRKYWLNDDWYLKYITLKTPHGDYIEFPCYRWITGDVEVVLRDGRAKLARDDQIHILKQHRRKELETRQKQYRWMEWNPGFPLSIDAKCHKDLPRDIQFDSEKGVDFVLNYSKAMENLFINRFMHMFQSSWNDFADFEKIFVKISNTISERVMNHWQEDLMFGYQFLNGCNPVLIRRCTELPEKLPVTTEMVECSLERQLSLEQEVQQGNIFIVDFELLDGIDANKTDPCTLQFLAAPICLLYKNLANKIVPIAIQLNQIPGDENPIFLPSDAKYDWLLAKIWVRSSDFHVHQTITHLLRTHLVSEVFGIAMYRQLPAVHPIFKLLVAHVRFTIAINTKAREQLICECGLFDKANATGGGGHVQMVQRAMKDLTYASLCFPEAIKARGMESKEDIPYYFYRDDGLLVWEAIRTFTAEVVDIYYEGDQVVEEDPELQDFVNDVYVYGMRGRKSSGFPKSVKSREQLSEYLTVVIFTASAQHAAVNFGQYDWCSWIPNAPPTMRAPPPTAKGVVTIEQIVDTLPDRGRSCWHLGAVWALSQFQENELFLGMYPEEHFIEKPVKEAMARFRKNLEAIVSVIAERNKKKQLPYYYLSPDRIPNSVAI
Description: Inhibition of Calcium Ionophore (A-23187)-stimulated LTB4 formation in Human Neutrophil assay at 100 uM. It counts as functional.

The target in series [3] is T1, Polyunsaturated fatty acid 5-lipoxygenase (Homo sapiens). Description: Inhibition of Calcium Ionophore (A-23187)-stimulated LTB4 formation in Human Neutrophil assay at 100 nM.
For series [4], the system named is Rattus norvegicus. Briefly: Effective dose was determined for in vivo ionophore induced rat pleurisy. Type of series: functional.
A short description of series [5]: half life was determined in plasma of dog. Type of series: ADME, organism-based, Canis lupus familiaris.
Series [6] is described as follows: half life was determined in plasma of monkey. The following applies: simiiformes. Type of series: ADME.
The species entered for series [7] is Homo sapiens. Briefly: Inhibition of Calcium Ionophore (A-23187)-stimulated LTB4 formation in Human whole blood assay. Type of series: functional.
Series [8] concerns Rattus norvegicus. Description: Percent inhibition was determined for in vivo ionophore induced rat pleurisy at a dose of 0.3 mg/kg.
A short description of series [9]: half life was determined in plasma of rat. Type of series: ADME, organism-based.
In series [10] the test system is Rattus norvegicus. Briefly: Effective dose was determined in in vivo which inhibits 50% of the mean value in rat anaphylaxis. It counts as functional.
In series [11] the test system is Rattus norvegicus. Description: In vivo inhibition of ionophore induced rat pleurisy. Type of series: functional.
In series [12] the test system is Rattus norvegicus. Description: Percent inhibition was determined for in vivo ionophore induced rat pleurisy at a dose of 10 mg/kg.
For series [13], the species on record is Homo sapiens. Briefly: Inhibition of Calcium Ionophore (A-23187)-stimulated LTB4 formation in Human whole blood assay at a concentration of 12.5 nM. Type of series: functional.

In turn, `O=C(O)/C=C/c1ccc(/C=N/OC(c2ccc(OCc3ccc4ccccc4n3)cc2)C2CCCCC2)cc1` (stereo not drawn) returned an I in the series with Rattus norvegicus [1] of 0%. In addition, the inhibition in series [2] came to 48%.

Consider `CCCCC(O/N=C(\C)C(=O)O)c1ccc(OCc2ccc3ccccc3n2)cc1` (stereo not drawn), for which the inhibition in series [2] worked out at 45%.

`O=C(O)c1ccc(O)c(/C=N/OC(c2ccc(OCc3ccc4ccccc4n3)cc2)C2CCCCC2)c1` (stereo not drawn): the I in the series with Rattus norvegicus [1] came to 35%. Moreover, the inhibition in series [2] amounted to 95%.

Turning to `C/C(CC(=O)O)=N\OC(c1ccc(OCc2ccc3ccccc3n2)cc1)C1CCCCC1` (stereo not drawn), the inhibition in series [3] worked out at 40%. For the same molecule, the I in the series with Rattus norvegicus [1] is 68%.

Take `C/C(=N\OC(c1ccc(OCc2ccc3ccccc3n2)cc1Cl)C1CCCCC1)C(=O)O` (stereo not drawn): the ED50 in the series with Rattus norvegicus [4] worked out at 0.8 mg/kg.

In the case of `C/C(=N\OC(c1ccc(OCc2ccc3ccccc3n2)cc1)c1cccnc1)C(=O)O` (stereo not drawn), the inhibition in [2] is 20%.

Regarding `COc1cc(OCc2ccc3ccccc3n2)ccc1C(O/N=C(\C)C(=O)O)C1CCCCC1` (stereo not drawn), in the series with Rattus norvegicus [1], the I is listed as 32%. In [2], the inhibition turned out to be 98%.

On to `C/C(=N\O[C@@H](c1ccc(OCc2ccc3ccccc3n2)cc1)C1CCCCC1)C(=O)O`, for which the values for the half-life in [5] and in [6] were 4.5 h and 3.8 h, respectively. The molecule also gave an I in the series with Rattus norvegicus [1] of 29%. Also, the Inhibition in the series filed under Homo sapiens [7] (Homo sapiens, Blood) turned out to be 63%.

In the series with Rattus norvegicus [4], `CC(C)(CC(O/N=C/C(=O)O)c1ccc(OCc2ccc3ccccc3n2)cc1)c1ccccc1` (stereo not drawn) came in with a median effective dose (ED50) of 4 mg/kg.

For `CCCCCCCC(O/N=C/C(=O)O)c1ccc(OCc2ccc3ccccc3n2)cc1` (stereo not drawn), the I in the series on Rattus norvegicus [1] is given as 0%. In addition, the inhibition in series [2] is 100%.

Turning to `CCCCCCCC(O/N=C(\C)C(=O)O)c1ccc(OCc2ccc3ccccc3n2)cc1` (stereo not drawn), the inhibition in series [2] was 96%.

As to `C/C(=N\OC(c1ccc(OCc2ccc3ccccc3n2)cc1)C1CCCCC1)C(=O)[O-].[Na+]` (stereo not drawn), in the series filed under Homo sapiens [7], the Inhibition was determined as 72%. The I in the series on Rattus norvegicus [8] amounted to 74%.

As for `CC(=NOC(c1ccc(OCc2ccc3ccccc3n2)cc1)C1CCCCC1)C(=O)O` (stereo not drawn), the results for the half-life in [9], in series [5] and in series [6] were 1 h, 2 h and 5.4 h, respectively. Besides, the I in the series on Rattus norvegicus [1] came to 89%. For the same molecule, the median effective dose (ED50) in the series on Rattus norvegicus [10] came out at 1.2 mg/kg. Moreover, in the series filed under Homo sapiens [7] (Homo sapiens, Blood), the IC50 came to 2100 nM.

With `O=C(O)/C=N/OC(c1nc(OCc2ccc3ccccc3n2)c(-c2ccccc2)s1)C1CCCCC1` (stereo not drawn), in series [2], the inhibition amounted to 2%.

For the molecule `C/C(=N\OC(c1ccc(OCc2cc(-c3ccccc3)on2)cc1)C1CCCCC1)C(=O)O` (stereo not drawn), in the series on Rattus norvegicus [1], the I was 0%. Besides, in series [2], the inhibition came to 61%.

For `C/C(=N\O[C@H](c1ccc(OCc2ccc3ccccc3n2)cc1)C1CCCCC1)C(=O)[O-].[Na+]`, the values for the half-life in series [9], in series [5] and in series [6] were 10.3 h, 5.6 h and 1.6 h, respectively. Moreover, the ED50 is 0.13 mg/kg with Rattus norvegicus [10] and 0.14 mg/kg with Rattus norvegicus [11]. For the same molecule, in the series listed under Homo sapiens [7] (Homo sapiens, Blood), the IC50 is 720 nM.

For the molecule `O=C(O)/C=N/OCC(c1ccc(OCc2ccc3ccccc3n2)cc1)C1CCCCC1` (stereo not drawn), the I in the series on Rattus norvegicus [12] came to 73%.

Turning to `CC(C)(C)SC/C(=N\OC(c1ccc(OCc2ccc3ccccc3n2)cc1)C1CCCCC1)C(=O)O` (stereo not drawn), the I in the series with Rattus norvegicus [4] was 47%.

`O=C(O)/C=N/OC(c1ccc(OCc2ccc3ccccc3n2)c(F)c1)C1CCCCC1` (stereo not drawn): the inhibition in [2] came to 97%.

For the molecule `C/C(=N\OC(c1ccc(OCc2ccc3ccccc3n2)cc1)C1CCCCC1)C(=O)O` (stereo not drawn) [listing 1 of 2 here], the half-life in series [5] is 5.6 h; in [6], 1.5 h. Besides, the ED50 in the series on Rattus norvegicus [10] came out at 1.2 mg/kg; with Rattus norvegicus [11], 0.5 mg/kg. Besides, in the series filed under Homo sapiens [7], the IC50 was determined as 1800 nM.

For `CCCCCCCCC(O/N=C(\C)C(=O)O)c1ccc(OCc2ccc3ccccc3n2)cc1` (stereo not drawn), the I in the series on Rattus norvegicus [1] was found to be 27%. Moreover, in series [2], the inhibition amounted to 92%.

Consider `C/C(=N/OC(c1ccc(OCc2ccc3ccccc3n2)cc1)C1CCCCC1)C(=O)O` (stereo not drawn), for which the Inhibition in the series filed under Homo sapiens [13] came to 59%.

For the molecule `COc1ccc(C(O/N=C(\C)C(=O)O)c2ccc(OCc3ccc4ccccc4n3)cc2)cc1` (stereo not drawn), the I with Rattus norvegicus [1] was found to be 20%. For the same molecule, in series [2], the inhibition worked out at 58%.

In the case of `C/C(=N\O[C@H](c1ccc(OCc2ccc3ccccc3n2)cc1)C1CCCCC1)C(=O)O`, the half-life is 11.8 h in series [9], 4.6 h in series [5] and 4 h in [6]. In addition, the 50% inhibitory concentration (IC50) in the series filed under Homo sapiens [7] turned out to be 840 nM. Moreover, in the series with Rattus norvegicus [8], the I worked out at 43%.

On to `C/C(=N\OC(c1ccc(OCc2ccc3ccccc3n2)cc1)C1CCCCC1)C(=O)O` (stereo not drawn) [listing 2 of 2 here], for which the inhibition in [2] came to 95%.

Turning to `C/C(=N\OC(c1ccc(OCc2cccc(Cl)n2)cc1)C1CCCCC1)C(=O)O` (stereo not drawn), the inhibition in series [2] came to 7%.

Consider `CCCCCCCCCCCCC(O/N=C/C(=O)O)c1ccc(OCc2ccc3ccccc3n2)cc1` (stereo not drawn), for which the inhibition in [2] amounted to 54%.

In turn, `O=C(O)/C=N/OC(c1ccc(-c2ccc(OCc3ccc4ccccc4n3)cc2)cc1)C1CCCCC1` (stereo not drawn) yielded an I in the series with Rattus norvegicus [1] of 10%. In addition, the inhibition in [2] stood at 55%.

In the series on Rattus norvegicus [1], `C/C(=N/OC(CCc1ccc(OCc2ccc3ccccc3n2)cc1)C1CCCCC1)C(=O)O` (stereo not drawn) yielded an I of 6%. Besides, in series [2], the inhibition amounted to 51%.

Regarding `C/C(=N\OC(c1ccc(OCc2nc(-c3ccc(C(C)C)cc3)cs2)cc1)C1CCCCC1)C(=O)O` (stereo not drawn), the I with Rattus norvegicus [1] came to 17%. The inhibition in series [2] came out at 57%.
